The results in this text go back to patent US20050154042A1, “N-alkyl pyrroles as HMG-CoA reductase inhibitors” (priority 2003, published 2005).

Structures can show the parent of a compound that is named as a salt.

Usually melting point stands for the temperature, or range, at which the solid turns liquid. Compound `CC(C)n1c(/C=C/[C@@H](O)C[C@@H](O)CC(=O)[O-])c(-c2ccc(F)cc2)c(-c2ccccc2)c1C(=O)Nc1cccc(S(N)(=O)=O)c1.[Na+]` [Example 126, (3R,5S)-7-[3-(4-Fluoro-phenyl)-1-isopropyl-4-phenyl-5-(3-sulfamoyl-phenylcarbamoyl)-1H-pyrrol-2-yl]-3,5-dihydroxy-hept-6-enoic Acid Sodium Salt] had a melting point of 225 to 227 °C.
As for `CC(C)n1c(CC[C@@H](O)C[C@@H](O)CC(=O)[O-])c(-c2ccc(F)cc2)c(-c2ccc(F)cc2)c1C(=O)Nc1ccc(OCc2ccccc2)cc1.[Na+]` [Example 127], the melting point is 215 to 217 °C.
`CCNC(=O)c1c(-c2ccccc2)c(-c2ccc(F)cc2)c(CC[C@@H](O)C[C@@H](O)CC(=O)[O-])n1C(C)C.[Na+]` [Example 158, (3R,5R)-7-[5-Ethylcarbamoyl-3-(4-fluoro-phenyl)-1-isopropyl-4-phenyl-1H-pyrrol-2-yl]-3,5-dihydroxy-heptanoic Acid Sodium Salt] had a melting point of 203 to 205 °C.
Under `CC(C)n1c(C=C[C@H](O)C[C@@H](O)CC(=O)[O-])c(-c2ccc(F)cc2)c(-c2ccc(F)cc2)c1C(=O)Nc1ccc(CS(C)(=O)=O)cc1.[Na+]` [Example 106, (3R,5R)-7-[3,4-Bis-(4-fluoro-phenyl)-1-isopropyl-5-(4-methanesulfonylmethyl-phenyl-carbamoyl)-1H-pyrrol-2-yl]-3,5-dihydroxy-hept-6-enoic Acid, Sodium Salt] stands 256 °C (dec.).
For `CC(C)n1c(CC[C@@H](O)C[C@@H](O)CC(=O)[O-])c(-c2ccc(F)cc2)c(-c2ccc(F)cc2)c1C(=O)NCc1cccc(S(=O)(=O)N(C)C)c1.[Na+]` [Example 71, (3R,5R)-7-[5-(3-dimethylsulfamoyl-benzylcarbamoyl)-3,4-bis-(4-fluoro-phenyl)-1-isopropyl-1H-pyrrol-2-yl]-3,5-dihydroxy-heptanoate Sodium Salt], the melting point was in the range of 172 to 175 °C.
Compound `COc1cccc(CNC(=O)c2c(-c3ccc(F)cc3)c(-c3ccc(F)cc3)c(CC[C@@H](O)C[C@@H](O)CC(=O)[O-])n2C(C)C)c1.[Na+]` [Example 110, (3R,5R)-7-[3,4-Bis-(4-fluoro-phenyl)-1-isopropyl-5-(3-methoxy-benzylcarbamoyl)-1H-pyrrol-2-yl]-3,5-dihydroxy-heptanoic Acid, Sodium Salt] registered a melting point of 207 to 209 °C.
Compound `COC(=O)c1cccc(CNC(=O)c2c(-c3ccccc3)c(-c3ccc(F)cc3)c(/C=C/[C@@H](O)C[C@@H](O)CC(=O)[O-])n2C(C)C)c1.[Na+]` [Example 151, (3R,5S)-7-[3-(4-Fluoro-phenyl)-1-isopropyl-5-(3-methoxycarbonyl-benzylcarbamoyl)-4-phenyl-1H-pyrrol-2-yl]-3,5-dihydroxy-hept-6-enoic Acid Sodium Salt] had a melting point of 171 to 174 °C.
Compound `COc1ccc([C@H](C)NC(=O)c2c(-c3ccc(F)cc3)c(-c3ccc(F)cc3)c(CC[C@@H](O)C[C@@H](O)CC(=O)[O-])n2C(C)C)cc1.[Na+]` [Example 152, (3R,5R)-7-{3,4-Bis-(4-fluoro-phenyl)-1-isopropyl-5-[(S)—I-(4-methoxy-phenyl)-ethylcarbamoyl]-1H-pyrrol-2-yl]-3,5-dihydroxy-heptanoic Acid Sodium Salt] registered a melting point of 227 to 229 °C.
`CC(C)n1c(CC[C@@H](O)C[C@@H](O)CC(=O)[O-])c(-c2ccc(F)cc2)c(-c2ccccc2)c1C(=O)Nc1ccc(S(N)(=O)=O)cc1.[Na+]` [Example 4, (3R,5R)-7-[3-(4-Fluoro-phenyl)-1-isopropyl-4-phenyl-5-(4-sulfamoyl-phenylcarbamoyl)-1H-pyrrol-2-yl]-3,5-dihydroxy-heptanoic Acid Sodium Salt]: the melting point was in the range of 265 to 267 °C.
For the compound `CC(C)n1c(CC[C@@H](O)C[C@@H](O)CC(=O)[O-])c(-c2ccc(F)cc2)c(-c2ccc(F)cc2)c1C(=O)NCc1ccc(C(=O)[O-])cc1.[Na+].[Na+]` [Example 162, (3R,5R)-4-({[5-(6-Carboxy-3,5-dihydroxy-hexyl)-3,4-bis-(4-fluoro-phenyl)-1-isopropyl-1H-pyrrole-2-carbonyl]-amino}-methyl)-benzoic Acid Disodium Salt], the melting point was in the range of 298 to 300 °C.
As to `CC(C)n1c(/C=C/[C@@H](O)C[C@@H](O)CC(=O)O)c(-c2ccc(F)cc2)c(-c2ccccc2)c1C(=O)NCc1ccc(F)cc1` (as salt: sodium) [Example 10, (3R,5S)-7-[5-(4-Fluoro-benzylcarbamoyl)-3-(4-fluoro-phenyl)-1-isopropyl-4-phenyl-1H-pyrrol-2-yl]-3,5-dihydroxy-hept-6-enoic Acid Sodium Salt], the melting point lay in the range of 221 to 223 °C.
Under `CC(C)n1c(CC[C@@H](O)C[C@@H](O)CC(=O)[O-])c(-c2ccc(F)cc2)c(-c2ccccc2)c1C(=O)NCc1ccc(C#N)cc1.[Na+]` [Example 144, (3R,5R)-7-[5-(4-Cyano-benzylcarbamoyl)-3-(4-fluoro-phenyl)-1-isopropyl-4-phenyl-1H-pyrrol-2-yl]-3,5-dihydroxy-heptanoic Acid Sodium Salt] stands 178 to 180 °C; under `CC(C)n1c(CC[C@@H](O)C[C@@H](O)CC(=O)[O-])c(-c2ccc(F)cc2)c(-c2ccccc2)c1C(=O)NCCc1ccccc1.[Na+]` [Example 91, (3R,5R)-7-[3-(4-Fluorophenyl)-1-isopropyl-5-(phenethylcarbamoyl)-4-phenyl-1H-pyrrol-2-yl]-3,5-dihydroxyheptanoic Acid Sodium Salt], 197 to 200 °C; under `CC(C)n1c(/C=C/[C@@H](O)C[C@@H](O)CC(=O)[O-])c(-c2ccc(F)cc2)c(-c2ccc(F)cc2)c1C(=O)Nc1cccc(C(=O)N(C)C)c1.[Na+]` [Example 68, trans-(3R,5S)-7-[5-(3-dimethylcarbamoyl-phenylcarbamoyl)-3,4-bis-(4-fluoro-phenyl)-1-isopropyl-1H-pyrrol-yl]-3,5-dihydroxy-hept-6-enoate Sodium Salt], 210 to 214 °C.
Regarding `CC(C)n1c(CC[C@@H](O)C[C@@H](O)CC(=O)[O-])c(-c2ccc(F)cc2)c(-c2ccccc2)c1C(=O)N[C@@H](C)c1ccccc1.[Na+]` [Example 115, (3R,5R)-7-[3-(4-Fluoro-phenyl)-1-isopropyl-4-phenyl-5-((S)-1-phenyl-ethylcarbamoyl)-1H-pyrrol-2-yl]-3,5-dihydroxy-heptanoic Acid Sodium Salt], the melting point is 227 to 229 °C (dec.).
Turning to `COC(=O)c1ccc(NC(=O)c2c(-c3ccc(F)cc3)c(-c3ccc(F)cc3)c(CC[C@@H](O)C[C@@H](O)CC(=O)[O-])n2C(C)C)nc1.[Na+]` [Example 121, (3R,5R)-6-{[5-(6-Carboxy-3,5-dihydroxy-hexyl)-3,4-bis-(4-fluoro-phenyl)-1-isopropyl-1H-pyrrole-2-carbonyl]-amino}-nicotinic Acid Methyl Ester Sodium Salt], the melting point is 178 to 181 °C (dec.).
Compound `CC(C)n1c(/C=C/[C@@H](O)C[C@@H](O)CC(=O)[O-])c(-c2ccc(F)cc2)c(-c2ccccc2)c1C(=O)Nc1cccc(C#N)c1.[Na+]` [Example 143, (3R,5S)-7-[5-(3-Cyano-phenylcarbamoyl)-3-(4-fluoro-phenyl)-1-isopropyl-4-phenyl-1H-pyrrol-2-yl]-3,5-dihydroxy-hept-6-enoic Acid Sodium Salt] returned a melting point of 210 to 212 °C.
Compound `COc1ccc([C@@H](C)NC(=O)c2c(-c3ccc(F)cc3)c(-c3ccc(F)cc3)c(CC[C@@H](O)C[C@@H](O)CC(=O)[O-])n2C(C)C)cc1.[Na+]` [Example 154, (3R,5R)-7-{3,4-Bis-(4-fluoro-phenyl)-1-isopropyl-5-[(R)-1-(4-methoxy-phenyl)-ethylcarbamoyl]-1H-pyrrol-2-yl}-3,5-dihydroxy-heptanoic Acid Sodium Salt] registered a melting point of 225 to 227 °C.
Under `Cc1ccnc(NC(=O)c2c(-c3ccc(F)cc3)c(-c3ccc(F)cc3)c(C=O)n2C(C)C)n1` [Example 179, 3,4-bis-(4-fluoro-phenyl)-5-formyl-1-isopropyl-1H-pyrrole-2-carboxylic Acid (4-methyl-pyrimidin-2-yl)-amide] stands 173 to 175 °C; under `CC(C)n1c(/C=C/[C@@H](O)C[C@@H](O)CC(=O)O)c(-c2ccc(F)cc2)c(-c2ccccc2)c1C(=O)Nc1ccc(S(N)(=O)=O)cc1` (as salt: sodium) [Example 5, (3R,5S)-7-[3-(4-Fluoro-phenyl)-1-isopropyl-4-phenyl-5-(4-sulfamoyl-phenylcarbamoyl)-1H-pyrrol-2-yl]-3,5-dihydroxy-hept-6-enoic Acid Sodium Salt], 255 to 256 °C; under `Cc1cnc(CNC(=O)c2c(-c3ccccc3)c(-c3ccc(F)cc3)c(CC[C@@H](O)C[C@@H](O)CC(=O)O)n2C(C)C)cn1` (as salt: sodium) [Example 97, (3R,5R)-7-[3-(4-Fluorophenyl)-1-isopropyl-5-[(5-methylpyrazin-2-ylmethyl)carbamoyl]-4-phenyl-1H-pyrrol-2-yl]-3,5-dihydroxyheptanoic Acid Sodium Salt], 184 to 188 °C.
Under `CC(C)n1c(/C=C/[C@@H](O)C[C@@H](O)CC(=O)[O-])c(-c2ccc(F)cc2)c(-c2ccccc2)c1C(=O)NCc1cccc(C#N)c1.[Na+]` [Example 147, (3R,5S)-7-[5-(3-Cyano-benzylcarbamoyl)-3-(4-fluoro-phenyl)-1-isopropyl-4-phenyl-1H-pyrrol-2-yl]-3,5-dihydroxy-hept-6-enoic Acid Sodium Salt] stands 208 to 210 °C; under `CC(C)n1c(/C=C/[C@@H](O)C[C@@H](O)CC(=O)[O-])c(-c2ccc(F)cc2)c(-c2ccccc2)c1C(=O)Nc1ccccc1.[Na+]` [Example 2, (3R,5S)-7-[3-(4-Fluoro-phenyl)-1-isopropyl-4-phenyl-5-phenylcarbamoyl-1H-pyrrol-2-yl]-3,5-dihydroxy-hept-6-enoic Acid Sodium Salt], 239 to 241 °C.
In turn, `COc1cccc(NC(=O)c2c(-c3ccc(F)cc3)c(-c3ccc(F)cc3)c(/C=C/[C@@H](O)C[C@@H](O)CC(=O)[O-])n2C(C)C)c1.[Na+]` [Example 137, (3R,5 S)-7-[3,4-Bis-(4-fluoro-phenyl)-1-isopropyl-5-(3-methoxy-phenylcarbamoyl)-1H-pyrrol-2-yl]-3,5-dihydroxy-hept-6-enoic Acid Sodium Salt] registered a melting point of 225 to 227 °C.
